Broadly, the zone of inhibition is the size of the clear area around the sample on an inoculated plate. As a reminder, the MIC is the smallest concentration in the dilution series that meets the test's criterion for growth inhibition. In general, solubility refers to the dissolved amount per volume that the medium holds. Broadly, the IC50 is the concentration that inhibits the measured activity by half. Higher therefore signals lower potency.

≈ marks a conversion by molar mass, not a printed value. Entries after “also recorded” stand apart in the source; their conditions may differ. Read-outs that look alike come from different tables or passages of the source.

The source of these data is patent US6147077A, “2R,4S-hydroxyitraconazole isomers” (priority 1999, dated 2000).

The test system of one series is Sacchromyces cerevisae. The experiment in a line: Kirby-Bauer Testing, Saccharomyces cerevisiae. The format is cell-based. The note with it: Saccharomyces cerevisiae, 10 μl of 10 mg/mL per disk, 30° C., 16 hours. As to the method: The hydroxyitraconazole isomers were tested for biological activity according three different assays.
Actively growing cultures of Candida albicans, Cryptococcus neoformens and Saccharomyces cerevisiae were prepared as described above. The cultures were diluted to a 0.5 McFarland standard and swabbed onto a 150 mm Sabouraud Dextrose agar plates. Paper disks (7 mm) were placed onto the agar plates using a disk dispenser. […] The plates were then incubated at 30° C. for 16 hours. Zones of inhibition were then measured in mm.

The conditions of series [1]: cited from earlier work.
For another series, the system named is fungi and bacteria. The note with it: cited from earlier work.
The test system of series [2] is Candida albicans. The experiment in a line: Antifungal MIC, Candida albicans. The format is cell-based. The note with it: Candida albicans. As to the method:
(§1) A 10 mL tube containing 4 mL of Sabourauds dextrose broth was inoculated with 1 colony of Candida albicans picked from a plate of pure culture. The strain was ordered from the American Type Culture Collection (ATCC). The organism was grown for 4 hours at 30° C. while shaking at 150 RPM. While the organism was growing, samples of hydroxy-itraconazoles were solubilized to a concentration of 10 mg/mL in DMSO. Each sample was then diluted 1:10 to make 1 mg/mL samples or 1000 μg/mL. These samples were then diluted by serial 2-fold dilutions to produce samples now containing 1000, 500, 250, 125, 62.5, 31.25, 15.6 μg/mL. […] At 4 hours of growth time the Candida albicans was diluted to a 0.5 McFarland standard representing about 10^5 -10^6 cells/mL and 1 μL of this inoculum placed into each test well of the microtiter dish. The dish was then covered and incubated at 30° C. for 16 hours.

Series [3] is described as follows: Water solubility of hydroxyitraconazole isomers and itraconazole. The format is physicochemical. As for the experimental part: The isomers of cis hydroxyitraconazole were tested for water solubility against a […] standard solution of hydroxyitraconazole. […] The values for 3+4 and 11+12 are barely above the LOD, giving accuracies of ±10%. In every case, solubilities were in the 10^1 to 10^2 ng/ml range.

For series [4] the following is noted: cited from earlier work. The source holds these as a separate data set.
For another series, the system named is synthesis of ergosterol. The note with it: cited from earlier work.
The next series deals with Cr. neoformens. The experiment in a line: Antifungal MIC, Cr. neoformens. It is filed as cell-based, Cryptococcus neoformens. The settings on record: Cryptococcus. As for the experimental part:
[The source words this procedure for another organism and reports this organism under the same test.] as §1

Series [5] concerns the target T1, cytochrome P450 3A4 (Homo sapiens, UniProt P08684).
Experimental: (§3) The IC50 values were determined by the appearance of 6β-hydroxytestosterone after incubation with testosterone. […] Of greater clinical significance is the ratio of the IC50 for 3A4 to the MIC for C. albicans 44203.
Series [6] can be described thus: Water solubility of hydroxyitraconazole phosphate isomers (NMG salts). The format is physicochemical. The settings on record: water; Table 8. From the text: The water solubility of the NMG salts of the phosphate esters of isomers 1, 2 and 3+4 were investigated and compared to the corresponding hydroxyitraconazole isomers 1, 2 and 3+4. The phosphate esters were as much as 10^7 times more water soluble than the corresponding hydroxyitraconazole isomer.

In a further series the test system is Aspergillis. The experiment in a line: Kirby-Bauer Testing, Aspergillis. The format is cell-based. The settings on record: 16 h, 10 μl of 10 mg/mL per disk.
The next series has as its system S. cerevisae. The experiment in a line: Antifungal MIC, S. cerevisae. The format is cell-based, Saccharomyces cerevisiae. The note with it: Saccharomyces cerevisiae. As to the method: [The source words this procedure for another organism and reports this organism under the same test.] as §1
For series [7], the target named is T1, cytochrome P450 3A4. The experiment in a line: Inhibition of cytochrome P450 3A4 (testosterone 6β-hydroxylase activity).
Experimental: as §3
In a further series the test system is A. fumigatis. The experiment in a line: Antifungal MIC, A. fumigatis. The settings on record: A. fumigatis (Table 3). It is filed as cell-based. As for the experimental part: [The source words this procedure for another organism and reports this organism under the same test.] as §1
For series [8], the system named is Candida albicans. The experiment in a line: Kirby-Bauer Testing, Candida albicans. It is filed as cell-based. The note with it: 10 μl of 10 mg/mL per disk, 30° C., 16 hours. As for the experimental part: The hydroxyitraconazole isomers were tested for biological activity according three different assays. Table 2 summarizes the results of Kirby-Bauer Testing against three actively growing cultures: Candida albicans, Cryptococcus neoformens and Saccromyces cerevisiae. […] A 10 mL tube containing 4 mL of Sabourauds dextrose broth was inoculated with 1 colony of Candida albicans picked from a plate of pure culture. The strain was ordered from the American Type Culture Collection (ATCC). The organism was grown for 4 hours at 30° C. while shaking at 150 RPM. While the organism was growing, samples of hydroxy-itraconazoles were solubilized to a concentration of 10 mg/mL in DMSO. Each sample was then diluted 1:10 to make 1 mg/mL samples or 1000 μg/mL. […] A 96-well microtiter dish was set up with 98 μL of liquid growth media in each test well, along with 1 μL of hydroxy-itraconazole solution. At 4 hours of growth time the Candida albicans was diluted to a 0.5 McFarland standard representing about 10^5 -10^6 cells/mL and 1 μL of this inoculum placed into each test well of the microtiter dish. The dish was then covered and incubated at 30° C. for 16 hours. Actively growing cultures of Candida albicans, Cryptococcus neoformens and Saccharomyces cerevisiae were prepared as described above. […] Zones of inhibition were then measured in mm.

The test system of the next series is Cryptococcus neoformens. The experiment in a line: Kirby-Bauer Testing, Cryptococcus neoformens. The note with it: 10 μl of 10 mg/mL per disk, 30° C., 16 hours. It is filed as cell-based. As to the method:
The hydroxyitraconazole isomers were tested for biological activity according three different assays. Table 2 summarizes the results of Kirby-Bauer Testing against three actively growing cultures: Candida albicans, Cryptococcus neoformens and Saccromyces cerevisiae.
Actively growing cultures of Candida albicans, Cryptococcus neoformens and Saccharomyces cerevisiae were prepared as described above. The cultures were diluted to a 0.5 McFarland standard and swabbed onto a 150 mm Sabouraud Dextrose agar plates. Paper disks (7 mm) were placed onto the agar plates using a disk dispenser. Next 10 μl of 10 mg/mL solutions of each sample hydroxy-itraconazole was pipetted onto separate paper disks. The plates were then incubated at 30° C. for 16 hours. Zones of inhibition were then measured in mm.

Series [9] is described as follows: Hydrolysis of phosphate esters in porcine brain. The format is in vitro ADME. The note with it: both free acid and bis(N-methylglucamine) salt. As for the experimental part:
(§2) The phosphate analogs of the isomers with the largest IC50 /MIC ratios, 1, 2 and 3+4 were further investigated for hydrolysis in plasma and tissues. […] The A% conversion (as determined by HPLC A% analysis) of the phosphate ester to the hydroxy compound was determined in three systems: human plasma, equine pancreas and porcine brain. […] Hydrolysis proceeded to >10% overnight at 37° C. in pancreas and brain, and 3% in human plasma. The hydrolyses of the three phosphates of 1, 2 and 3+4 were also studied in various rat tissues and plasma. In all cases, the jejunum and liver gave the greatest conversion to hydroxyitraconazole, ranging from 20% to 40% for the free acids.

Series [10] in a line: Hydrolysis of phosphate esters in human plasma. It is filed as in vitro ADME. The note with it: both free acid and bis(N-methylglucamine) salt. As to the method:
as §2

The nature of series [11]: Hydrolysis of phosphate esters in equine pancreas. The format is in vitro ADME. The settings on record: both free acid and bis(N-methylglucamine) salt. As to the method:
as §2

T1 sequence (P08684 whole entry): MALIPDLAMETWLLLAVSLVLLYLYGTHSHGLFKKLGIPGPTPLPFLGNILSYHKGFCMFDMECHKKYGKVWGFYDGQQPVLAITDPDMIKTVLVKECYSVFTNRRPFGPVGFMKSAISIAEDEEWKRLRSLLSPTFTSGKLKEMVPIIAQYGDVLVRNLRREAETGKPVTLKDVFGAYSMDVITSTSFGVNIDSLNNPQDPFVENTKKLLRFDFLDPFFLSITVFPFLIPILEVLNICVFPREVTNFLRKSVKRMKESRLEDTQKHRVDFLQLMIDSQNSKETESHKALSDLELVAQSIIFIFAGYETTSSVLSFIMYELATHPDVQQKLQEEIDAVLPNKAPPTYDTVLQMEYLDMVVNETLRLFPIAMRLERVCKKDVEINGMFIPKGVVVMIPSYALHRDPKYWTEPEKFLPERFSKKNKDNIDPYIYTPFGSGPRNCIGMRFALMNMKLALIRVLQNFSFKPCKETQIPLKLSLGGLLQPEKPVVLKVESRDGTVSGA

With `CCC(C)n1ncn(-c2ccc(N3CCN(c4ccc(OC[C@H]5CO[C@](Cn6cncn6)(c6ccc(Cl)cc6Cl)O5)cc4)CC3)cc2)c1=O` (relative stereo) [itraconazole, 4-[4-[4-[4-[[2-(2,4-dichlorophenyl)-2-(1H-1,2,4-triazol-1-ylmethyl)-1,3-dioxolan-4-yl]methoxy]phenyl]-1-piperazinyl]phenyl]-2,4-dihydro-2-(1-methylpropyl)-3H-1,2,4-triazol-3-one], the zone of inhibition at 10000 µg/mL with Sacchromyces cerevisae worked out at 15 mm. Moreover, the Adverse effects result in [1] (administration of itraconazole) is “hepatotoxicity and inhibition of drug metabolism in the liver; also recorded: Hypersensitivity reactions including urticaria and elevations in serum liver enzymes”. Besides, in series [1] (racemic itraconazole concurrently with terfenadine), the “Torsades de Pointes” value is “Torsades de Pointes, has been reported”. Moreover, in the series with fungi and bacteria (Sabouraud broth containing 10% inactivated bovine serum), the “Effect of serum on antifungal activity” value is “enhanced in vitro”. For the same molecule, the Inhibition of growth entry with fungi and bacteria (Sabouraud broth, 14 days, Microsporum canis, Trichophyton mentagrophytes, Candida albicans, Aspergillus spp. and others) is given as “Complete or marked inhibition of growth”. In the series on Candida albicans [2], this molecule yielded an MIC of 0.06 µg/mL (≈ 0.085 µM). Moreover, the Water solubility entry is “such low water solubility that it could not be determined by this method” in [3] (LOD: 5000 μV*sec, order-of-magnitude accuracy below LOD, 3+4 and 11+12 ±10%, listed as Itraconazole); “not detected” in series [3] (LOD: 5000 μV*sec, order-of-magnitude accuracy below LOD, 3+4 and 11+12 ±10%, listed as ±Itraconazole). In addition, in series [4] (in most subjects), the “Urinary excretion of metabolites” value was “no metabolites are excreted in the urine”. Also, the “Absorption following oral administration” value in series [4] (oral) is “slowly absorbed”. For the same molecule, the Pharmacokinetic behavior result in series [4] (oral) is “nonlinear”. For the same molecule, in the series on synthesis of ergosterol, the “Effect on synthesis of ergosterol” value was “impairs the synthesis of ergosterol”.
With `C[C@@H](O)[C@H](C)n1ncn(-c2ccc(N3CCN(c4ccc(OC[C@H]5CO[C@](Cn6cncn6)(c6ccc(Cl)cc6Cl)O5)cc4)CC3)cc2)c1=O` [Compound 1], the zone of inhibition at 10000 µg/mL was 22 mm in the series on Sacchromyces cerevisae, 27 mm in the series on Aspergillis, 22 mm in the series on Candida albicans [8] and 28 mm in the series on Cryptococcus neoformens. Moreover, the MIC is 0.39 µg/mL (≈ 0.54 µM) with Cr. neoformens (Cr. neoformens (Table 3)); 1 µg/mL (≈ 1.39 µM) in the series with Candida albicans [2] (C. albicans strain 10231 (Table 3), read-out: Antifungal MIC); 0.25 µg/mL (≈ 0.346 µM) in the series on Candida albicans [2] (C. albicans strain 28516 (Table 3), read-out: Antifungal MIC); 0.125 µg/mL (≈ 0.173 µM) in the series with Candida albicans [2] (C. albicans strain 28815 (Table 3), read-out: Antifungal MIC); 0.05 µg/mL (≈ 0.0693 µM) in the series with Candida albicans [2] (C. albicans strain 44203 (Table 3), read-out: Antifungal MIC); 0.5 µg/mL (≈ 0.693 µM) with Candida albicans [2] (C. albicans strain 44373 (Table 3), read-out: Antifungal MIC). Moreover, the MIC with Candida albicans [2] (C. albicans strain 62342 (Table 3), read-out: Antifungal MIC) is 0.5 µg/mL (≈ 0.693 µM); with Candida albicans [2] (Candida albicans strain 44203 (Table 4), read-out: MIC), 0.05 µg/mL (≈ 0.0693 µM); against S. cerevisae (S. cerevisae (Table 3)) it was 0.195 µg/mL (≈ 0.27 µM); in the series on A. fumigatis it was 0.137 µg/mL (≈ 0.19 µM). At cytochrome P450 3A4 [5], the “Inhibition of P450 3A4 in words” value was “notably less inhibition of the P450 3A4 enzyme than the 2S,4R isomers”. Further, the solubility in [6] is 0.051 µg/mL; in series [3] (water, LOD: 5000 μV*sec, order-of-magnitude accuracy below LOD, 3+4 and 11+12 ±10%) it was 0.051 µg/mL (≈ 0.0707 µM). Further, the Area in series [3] (λmax = 260 nm, LOD 5000 μV*sec) came to 1499 μV*sec. Also, at cytochrome P450 3A4 [7], the IC50 is 2800 nM. In addition, the selectivity ratio on cytochrome P450 3A4 [7] stood at 56. For the same molecule, the “IC50/MIC ratio in words” value on cytochrome P450 3A4 [7] (therapeutic index, 3A4 vs C. albicans 44203) is listed as “excellent results”.
On to `C[C@H](OP(=O)(O)O)[C@@H](C)n1ncn(-c2ccc(N3CCN(c4ccc(OC[C@H]5CO[C@](Cn6cncn6)(c6ccc(Cl)cc6Cl)O5)cc4)CC3)cc2)c1=O` [Compound 2-phosphate], for which the minimum inhibitory concentration (MIC) with Cr. neoformens (Cr. neoformens (Table 7, esters)) came to 12.5 µg/mL (≈ 15.6 µM); in the series on Candida albicans [2] (C. albicans (Table 7, esters), read-out: Antifungal MIC) it was 12.5 µg/mL (≈ 15.6 µM); against S. cerevisae (S. cerevisae (Table 7, esters)) it was 12.5 µg/mL (≈ 15.6 µM). Also, the “Ease of hydrolysis of phosphate ester” value in series [9], in series [10] and in series [11] was “most readily hydrolyzed compound in all three systems” throughout.
